In patent US4886750A, “Process for the preparation of a pharmaceutically active compound in a stereospecific form of the formula” (priority 1986, dated 1989):

Assays:
[1] = S-enantiomer vs antipode; cited from earlier work
[2] = target: T1, E. coli pNAPT-7 cell lysate (Bacillus subtilis, UniProt Q59248); assay: hydrolysis of ester substrates by E. coli pNAPT-7 cell lysate (Example 13); type: biochemical, Bacillus subtilis Thai I-8; conditions: for enzyme activity on substrate: 25° C., 0.1 MOPS pH 7.5, 0.3 mg ester/ml, 2% Tween, 1 mg/ml BSA, 2 hours
T1 construct: ammonium sulphate-precipitated, ultrafiltered lysate; about 31 kDa, untagged wild type
T1 sequence (Q59248 entry or part of it): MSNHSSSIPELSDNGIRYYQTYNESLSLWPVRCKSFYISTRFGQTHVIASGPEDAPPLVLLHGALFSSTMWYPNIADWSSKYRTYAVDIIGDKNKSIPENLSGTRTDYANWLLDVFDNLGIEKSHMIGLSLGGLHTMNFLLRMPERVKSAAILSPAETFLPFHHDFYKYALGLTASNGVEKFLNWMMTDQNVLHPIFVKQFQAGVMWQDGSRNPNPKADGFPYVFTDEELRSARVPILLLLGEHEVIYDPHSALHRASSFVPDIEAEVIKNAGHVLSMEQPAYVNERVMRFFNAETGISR
Description: The E. coli pNAPT-7 cell lysate after ammonium sulphate precipitation and ultrafiltration was tested on the hydrolysis of the ethyl ester of R and S-ibuprofen.
The enzyme activity was assayed at 25° C. in 0.1 MOPS buffer pH 7.5 with 0.3 mg of R or S-ibuprofen ethyl ester/ml, 2% Tween and 1 mg/ml BSA. After 2 hours incubation the reaction was stopped by the addition of acetonitrile.
The reaction mixture was analyzed on a HPLC-reversed phase column (Chrompack Polygosil 60D-10CN, 250×4.6 mm), eluted with 34% acetonitrile, 0.05M phosphoric acid pH 3.0 at a flow rate of 1.5 ml/min. Retention times for R and S-ibuprofen and the ethyl ester of R and S-ibuprofen were 5.98 minutes and 11.08 minutes respectively.

| SMILES | in vitro anti-inflammatory activity of the S-enantiomer relative to its antipode [1] | enzyme activity on substrate [2] | S-specificity ([2]; Table 12, ibuprofen ethyl ester) | hydrolysis relative to the hydrolysing activity of the methyl ester of S-naproxen ([2]; tested under the same conditions) |
| --- | --- | --- | --- | --- |
| CC(C)Cc1ccc([C@H](C)C(=O)O)cc1 [ibuprofen, 2-(4-isobutyl-1-phenyl) propionic acid] | up to 150 times |  |  |  |
| CCOC(=O)[C@@H](C)c1ccc(CC(C)C)cc1 [S-ibuprofen ethyl ester, ethyl 2-(4-isobutyl-1-phenyl) propionate] |  | 39600 u/l | 95.3% | 60% |
| COC(=O)[C@@H](C)c1ccc2cc(OC)ccc2c1 [S-naproxen methyl ester, methyl 2-(6-methoxy-2-naphthyl) propionate] |  | 65000 u/l |  |  |
| COc1ccc2cc([C@H](C)C(=O)O)ccc2c1 [naproxen, 2-(6-methoxy-2-naphthyl) propionic acid] | up to 150 times |  |  |  |
| CCOC(=O)[C@H](C)c1ccc(CC(C)C)cc1 [R-ibuprofen ethyl ester, ethyl 2-(4-isobutyl-1-phenyl) propionate] |  | 1865 u/l |  |  |
